Data on one molecule can be found in patent US8709719B2, “ZNF217 a new prognostic and predictive biomarker of recurrent invasive and metastatic phenotypes in breast cancer” (Centre Leon Berard, priority 2009, dated 2014).

The test system of one assay is MVLN cells. As to the kind of experiment: Cell proliferation assay (BrdU) in MVLN cells. The assay is classed as cell-based. The note with it: 200 nM OH-Tam. On the procedure: (§1) FIG. 13: Endocrine resistance is reversed in the presence of an siRNA-ZNF217 in OH-Tam-resistant CL6.7 cells. Total protein extracts from cell lines were analyzed by Western blotting with an anti-ZNF217. Expression of α-tubulin was used as an invariant control. (A) Western-blot analysis of ZNF217 in transfected MVLN and CL6.7 cells with either scrambled RNA or with an siRNA-ZNF217. (B) Cell proliferation (BrdU test) of transfected MVLN and CL6.7 cells with either scrambled RNA or siRNA-ZNF217, in the presence or the absence of 200 nM OH-Tam. This assay was performed in steroid-free medium. P-value (Student's t-test) was considered as significant when P<0.05.
(§2) MCF7 and MDA-MB-231 breast cancer cells were purchased from ATCC and grown according to recommendations in DMEM medium supplemented with 10% fetal bovine serum (Invitrogen, Cergy Pontoise, Paris). S30 cells and their MDA-MB-231 control cells have been previously described (Levenson et al., 2003). The cellular model of endocrine resistance (MVLN and CL6.7 cells) have been previously established and described (Demirpence et al., 1993).
(§3) Proliferating cells were analyzed using the Cell Proliferation ELISA, BrdU (colorimetric) Kit (Roche, Meylan, France). […]

For a further assay, the system named is CL6.7 cells. The assay can be described thus: Cell proliferation assay (BrdU) in OH-Tam-resistant CL6.7 cells. Format: cell-based. To be noted: 200 nM OH-Tam. On the procedure:
as §1, §2, §3

As to `CC/C(=C(\c1ccc(O)cc1)c1ccc(OCCN(C)C)cc1)c1ccccc1` [OH-Tam, OH-Tamoxifen], the “effect of OH-Tam exposure on cell proliferation” value with MVLN cells (MVLN cells (OH-Tam-sensitive), steroid-free medium) is “cytostatic activity”; in the assay on CL6.7 cells (CL6.7 cells (OH-Tam-resistant), steroid-free medium), “strong stimulation of CL6.7 cell proliferation”. The “sensitivity to endocrine therapy (cell proliferation)” value in the assay with MVLN cells (MVLN cells, OH-Tam exposure combined with ZNF217 knockdown (siRNA), P=0.001) is on record as “increased sensitivity to endocrine therapy”. In the assay on CL6.7 cells (CL6.7 cells, OH-Tam exposure combined with ZNF217 knocking-out (siRNA), P<10^-5), the “inhibition of cell proliferation” value came to 35%.
